Assay results published in PMC7738880, “Identification of novel CD44v6-binding peptides that block CD44v6 and deliver a pro-apoptotic peptide to tumors to inhibit tumor growth and metastasis in mice” (Theranostics, 2021).
Residues, ends and D or L forms follow the SMILES beside them.

Columns and labels:
c-Met in MDA-MB231 cells = assay: HGF-induced c-Met internalization (confocal microscopy); assay type: cell-based, human; conditions: peptide pre-treatment 10 min, HGF 25 ng/mL 30 or 60 min
Method: To examine the internalization of CD44v6, 1 × 10^5 MDA-MB231 cells were seeded in each well of an 8-well chamber slide and cultured for 24 h. Next, the cells were incubated with a fresh culture medium containing FITC-labeled peptides (10 μM) at 37 °C for 10, 30, and 60 min and then stained with an anti-human CD44v6 mouse monoclonal antibody (clone no. VFF-7; Santa Cruz Biotechnology). The cells were then incubated with an Alexa Fluor 594-labeled goat anti-mouse IgG secondary antibody (Merck). To examine the internalization of c-Met, cells were incubated with recombinant human HGF at 25 ng/mL (R&D Systems, Minneapolis, MN) for 30 or 60 min with or without pre-treatment with peptides (20 µM) for 10 min. After incubation, the cells were stained with an anti-Met rabbit polyclonal antibody (clone no. C-28, 1:100 dilution; Santa Cruz Biotechnology). The cells were then incubated with an Alexa Fluor 594-labeled goat anti-rabbit IgG secondary antibody (Merck). For nuclear staining, the cells were incubated with DAPI and the ProLong antifade reagent before observation under a confocal microscope (Zeiss).

[1] = system: MDA-MB231 subcutaneous tumors; assay: In vivo whole-body and ex vivo fluorescence imaging of tumor homing; parameters: species or system BALB/c nude mouse; conditions: Flamma 675 NIR dye-labeled peptide 1 mg/kg i.v.; for ex vivo accumulation in tumors versus organs: 6 h post-injection, n = 3/group; for in vivo fluorescence signals at tumor areas: imaging 1-6 h
Method: Mice for animal experiments were purchased from Orient Bio Inc. (Seongnam, Korea) and maintained in conformance with the Guidelines of the Institutional Animal Care and Use Committee of Kyungpook National University (permission no. 2014-1-121). A total of 1 × 10^6 MDA-MB231 cells were subcutaneously injected into the right flank of each 6-week-old female BALB/c nude mouse. When the tumor reached a volume of approximately 100 mm^3, the mouse was injected intravenously with Flamma 675 NIR fluorescence dye-labeled peptides (1 mg/kg body weight). Whole-body fluorescence imaging was performed under inhalational anesthesia using an IVIS imaging system (Perkin Elmer). After in vivo imaging, each mouse was euthanized, the tumor and control organs (liver, kidney, spleen, heart, and lung) were isolated, and ex vivo images were obtained using the IVIS imaging system.

MDA-MB231 cells = assay: Saturation cell binding assay, MDA-MB231; parameters: species or system human; conditions: biotin-labeled peptide 0-256 µM, 4 °C, 1 h
Method: Supplementary Information
Supplementary Materials and Methods
Saturation binding assays to determine the cellular binding affinities of peptides Cells (5 × 10^3 cells per well in a 96-well plate) were incubated with 1% bovine serum albumin (BSA) for 30 min and with different concentrations of biotin-labeled peptides (0, 2, 4, 8, 16, 32, 64, 128, and 256 µM) at 4 °C for 1 h. After washing, the cells were incubated with horseradish peroxidase-conjugated neutravidin (1:10,000 dilution; ThermoFisher Scientific, Waltham, MA) for 30 min at room temperature. Enzymatic activity was detected using a 3,3ʹ,5,5ʹ-tetramethylbenzidine substrate (ThermoFisher Scientific), and the reaction was stopped using 2 M sulfuric acid. The absorbance at 450 nm was measured in each well using a microplate reader (Tecan, Mannedorf, Switzerland). The KD values were then calculated using GraphPad Prism 6 software (GraphPad Inc., La Jolla, CA). […]
10 µM biotin-labeled CD44v6-binding peptides at 4 °C for 1 h. […]
Scientific) for 30 min at room temperature. […]

[2] = system: CD44v6-high cells (MDA-MB231, 4T1, Panc-1) versus CD44v6-low MCF7 cells; assay: Immunofluorescence microscopy and flow cytometry of FITC-peptide cell binding; assay type: cell-based; conditions: FITC-labeled peptide 25 µM, 4 °C, 1 h
Method: Cells were seeded in each well of an 8-well chamber slide at a density of 1 × 10^5 cells per well, incubated overnight, and then treated with 1% BSA at room temperature for 1 h. Subsequently, the cells were incubated with FITC-conjugated peptides (25 µM) at 4 °C for 1 h, blocked with BSA, fixed, and incubated with an anti-human CD44v6 mouse monoclonal antibody (clone no. VFF-7, 1:100 dilution; Santa Cruz Biotechnology, Dallas, TX) or a rabbit anti-CD44v6 polyclonal antibody (1:100 dilution; Merck). The cells were then incubated with an Alexa Fluor 594-labeled goat anti-mouse IgG or goat anti-rabbit IgG secondary antibodies (Merck). After incubation, the cells were counterstained with 4ʹ,6-diamidino-2-phenylindole (DAPI, Sigma-Aldrich, St. Louis, MI), mounted with ProLong antifade reagent (Thermo Fischer Scientific), and observed under a confocal microscope (Zeiss, Jena, Germany).
Cells (1 × 10^5 cells) were harvested and suspended in culture medium containing 1% BSA for 1 h, followed by an incubation with FITC-labeled peptides (25 µM) at 4 °C for 1 h. After washing, the cells were analyzed using a FACSCalibur flow cytometer (BD, Franklin Lakes, NJ). […]

Row | SMILES | HGF-induced internalization of c-Met (c-Met in MDA-MB231 cells) | ex vivo accumulation in tumors versus organs [1] | in vivo fluorescence signals at tumor areas [1] | Kd (MDA-MB231 cells) [µM] | cellular binding, CD44v6-high versus CD44v6-low cells [2]
1 | CC[C@H](C)[C@H](NC(=O)[C@@H](NC(=O)[C@H](CC(N)=O)NC(=O)[C@H](CC(C)C)NC(=O)[C@H](CC(N)=O)NC(=O)[C@@H](N)CS)[C@@H](C)O)C(=O)N[C@@H](CC(=O)O)C(=O)N[C@H](C(=O)N[C@@H](CS)C(=O)O)[C@@H](C)O [NLN] (H-CNLNTIDTC-OH; N-terminus and C-terminus assumed) | inhibited | higher levels of NLN and NEW accumulation in tumors than in control organs | higher than those associated with the control peptide until 4 h | 12 ± 5 | bound selectively to CD44v6-high cells
2 | CC(C)C[C@H](NC(=O)[C@H](CCC(N)=O)NC(=O)[C@H](Cc1c[nH]c2ccccc12)NC(=O)[C@H](CCC(=O)O)NC(=O)[C@H](CC(N)=O)NC(=O)[C@@H](N)CS)C(=O)N[C@@H](CCCCN)C(=O)N[C@@H](CO)C(=O)N[C@@H](CS)C(=O)O [NEW] (H-CNEWQLKSC-OH; N-terminus and C-terminus assumed) | inhibited | higher levels of NLN and NEW accumulation in tumors than in control organs | higher than those associated with the control peptide until 4 h | 18 ± 6 | bound selectively to CD44v6-high cells
